Reference: patent publication US20180148418A1, “AMIDO-SUBSTITUTED CYCLOHEXANE DERIVATIVES” (Bayer Pharma Aktiengesellschaft, priority 2015, published 2018)
pIC50: −log10 of the molar value.

Biological target: T1, TNKS2 (Homo sapiens, UniProt Q9H2K2)
T1 construct: purchased BPS Bioscience, San Diego, USA 80572 (TNKS2 Histone Ribosylation Assay Kit)
T1 sequence (Q9H2K2 1-1166): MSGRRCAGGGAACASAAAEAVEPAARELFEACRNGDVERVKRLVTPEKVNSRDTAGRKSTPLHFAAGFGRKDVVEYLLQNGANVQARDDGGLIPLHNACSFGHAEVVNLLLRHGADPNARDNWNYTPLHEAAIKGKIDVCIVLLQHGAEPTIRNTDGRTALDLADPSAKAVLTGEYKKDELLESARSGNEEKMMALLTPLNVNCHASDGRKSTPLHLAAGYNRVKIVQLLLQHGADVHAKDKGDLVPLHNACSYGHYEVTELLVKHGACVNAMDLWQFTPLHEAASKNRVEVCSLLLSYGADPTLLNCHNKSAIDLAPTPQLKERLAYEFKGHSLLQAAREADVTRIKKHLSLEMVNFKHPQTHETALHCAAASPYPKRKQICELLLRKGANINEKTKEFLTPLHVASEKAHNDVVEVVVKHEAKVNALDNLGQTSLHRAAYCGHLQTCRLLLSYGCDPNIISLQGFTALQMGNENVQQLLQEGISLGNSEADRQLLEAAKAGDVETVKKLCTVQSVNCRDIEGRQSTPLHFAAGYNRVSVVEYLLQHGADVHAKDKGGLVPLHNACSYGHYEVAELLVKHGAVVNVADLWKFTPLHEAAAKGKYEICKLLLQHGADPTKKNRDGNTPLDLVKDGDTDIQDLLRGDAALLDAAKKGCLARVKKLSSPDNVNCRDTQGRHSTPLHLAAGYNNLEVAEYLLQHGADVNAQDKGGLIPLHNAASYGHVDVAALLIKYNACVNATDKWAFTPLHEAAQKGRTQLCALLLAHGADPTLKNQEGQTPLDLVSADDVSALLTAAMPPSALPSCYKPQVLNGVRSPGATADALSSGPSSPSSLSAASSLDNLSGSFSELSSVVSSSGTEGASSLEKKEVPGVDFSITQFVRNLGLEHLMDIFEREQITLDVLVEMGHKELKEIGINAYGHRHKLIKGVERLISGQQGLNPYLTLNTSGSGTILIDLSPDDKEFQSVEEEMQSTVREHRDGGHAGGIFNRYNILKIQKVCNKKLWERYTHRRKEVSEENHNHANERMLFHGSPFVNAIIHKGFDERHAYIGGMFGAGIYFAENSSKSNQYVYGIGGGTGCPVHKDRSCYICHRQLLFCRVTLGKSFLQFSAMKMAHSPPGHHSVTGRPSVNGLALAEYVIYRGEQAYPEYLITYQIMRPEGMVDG
Test: TNKS2 Assay B (auto-parsylation, [3H]-NAD+ SPA)
Format: biochemical
Conditions: 6 nM TNKS2, auto-parsylation, over night at room temperature

With `CC(C)(O)CNC(=O)c1nc[nH]c1C(=O)N[C@H]1CC[C@H](C(=O)Nc2cc(C(F)(F)F)ccc2Cl)CC1` [Example 145, N^5-(trans-4-{[2-chloro-5-(trifluoromethyl)phenyl]carbamoyl}cyclohexyl)-N^4-(2-hydroxy-2-methylpropyl)-1H-imidazole-4,5-dicarboxamide] the pIC50 was 6.55.

Work on `O=C(NCC1CCCO1)c1nc[nH]c1C(=O)N[C@H]1CC[C@H](C(=O)Nc2cc(C(F)(F)F)ccc2Cl)CC1` (stereo partly drawn) [Example 146, N^5-(trans-4-{[2-chloro-5-(trifluoromethyl)phenyl]carbamoyl}cyclohexyl)-N^4-(tetrahydrofuran-2-ylmethyl)-1H-imidazole-4,5-dicarboxamide] yielded a pIC50 of 7.00.

Work on `CNC(=O)c1nc[nH]c1C(=O)N[C@H]1CC[C@H](C(=O)Nc2ncncc2Cl)CC1` [Example 147, N^5-{trans-4-[(5-chloropyrimidin-4-yl)carbamoyl]cyclohexyl}-N^4-methyl-1H-imidazole-4,5-dicarboxamide] yielded a pIC50 of 7.11.

With `O=C(N[C@H]1CC[C@]2(CCN(c3ccc(F)cc3Cl)C2=O)CC1)c1cnn2cccnc12` [Example 148, N-[(cis)-2-(2-chloro-4-fluorophenyl)-1-oxo-2-azaspiro[4.5]dec-8-yl]pyrazolo[1,5-a]pyrimidine-3-carboxamide] the pIC50 was 5.89.

Work on `O=C(N[C@H]1CC[C@H](C(=O)Nc2cnc(C(F)(F)F)cc2Cl)CC1)c1cnn2cccnc12` [Example 149, N-(trans-4-{[4-chloro-6-(trifluoromethyl)pyridin-3-yl]carbamoyl}cyclohexyl)pyrazolo[1,5-a]pyrimidine-3-carboxamide] yielded a pIC50 of 6.77.

In the case of `Cc1cc(NC(=O)[C@H]2CC[C@H](NC(=O)c3cnn4cccnc34)CC2)c(Cl)cc1F` [Example 150, N-{trans-4-[(2-chloro-4-fluoro-5-methylphenyl)carbamoyl]cyclohexyl}pyrazolo[1,5-a]pyrimidine-3-carboxamide], the pIC50 was 7.46.

In the case of `Cc1cc(F)cc(Cl)c1NC(=O)[C@H]1CC[C@H](NC(=O)c2cnn3cccnc23)CC1` [Example 151, N-{trans-4-[(2-chloro-4-fluoro-6-methylphenyl)carbamoyl]cyclohexyl}pyrazolo[1,5-a]pyrimidine-3-carboxamide], the pIC50 was 6.82.

Molecule `CCN(c1ccc(F)cc1Cl)C(=O)[C@H]1CC[C@H](NC(=O)c2cnn3cccnc23)CC1` [Example 154, N-{trans-4-[(2-chloro-4-fluorophenyl)(ethyl)carbamoyl]cyclohexyl}pyrazolo[1,5-a]pyrimidine-3-carboxamide] has a pIC50 of 7.24.

`CN(c1ccc(F)cc1Cl)C(=O)[C@H]1CC[C@H](NC(=O)c2cnn3cccnc23)CC1` [Example 155, N-{trans-4-[(2-chloro-4-fluorophenyl)(methyl)carbamoyl]cyclohexyl}pyrazolo[1,5-a]pyrimidine-3-carboxamide] showed a pIC50 of 7.04.

In the case of `CN(c1ccccc1)C(=O)[C@H]1CC[C@H](NC(=O)c2cnn3cccnc23)CC1` [Example 156, N-{trans-4-[methyl(phenyl)carbamoyl]cyclohexyl}pyrazolo[1,5-a]pyrimidine-3-carboxamide], the pIC50 was 6.64.

`CNC(=O)c1nc[nH]c1C(=O)N[C@H]1CC[C@H](C(=O)N(CCO)c2ccc(F)cc2Cl)CC1` [Example 157, N^5-{trans-4-[(2-chloro-4-fluorophenyl)(2-hydroxyethyl)carbamoyl]cyclohexyl}-N^4-methyl-1H-imidazole-4,5-dicarboxamide] was tested, and the pIC50 was 6.55.

Work on `CC1CCN(CCNC(=O)c2nc[nH]c2C(=O)N[C@H]2CC[C@@]3(CCN(c4ccc(F)cc4Cl)C3=O)CC2)CC1` [Example 160, N^5-[(trans)-2-(2-chloro-4-fluorophenyl)-1-oxo-2-azaspiro[4.5]dec-8-yl]-N^4-[2-(4-methylpiperidin-1-yl)ethyl]-1H-imidazole-4,5-dicarboxamide] yielded a pIC50 of 8.47.

In the case of `O=C(NCCN1CCCCC1)c1nc[nH]c1C(=O)N[C@H]1CC[C@@]2(CCN(c3ccc(F)cc3Cl)C2=O)CC1` [Example 161, N^5-[(trans)-2-(2-chloro-4-fluorophenyl)-1-oxo-2-azaspiro[4.5]dec-8-yl]-N^4-[2-(piperidin-1-yl)ethyl]-1H-imidazole-4,5-dicarboxamide], the pIC50 was 8.80.

In the case of `CC(C)NC(=O)c1nc[nH]c1C(=O)N[C@H]1CC[C@@]2(CCN(c3ccc(F)cc3Cl)C2=O)CC1` [Example 162, N^5-[(trans)-2-(2-chloro-4-fluorophenyl)-1-oxo-2-azaspiro[4.5]dec-8-yl]-N^4-isopropyl-1H-imidazole-4,5-dicarboxamide], the pIC50 was 8.09.

Molecule `COCCNC(=O)c1nc[nH]c1C(=O)N[C@H]1CC[C@@]2(CCN(c3ccc(F)cc3Cl)C2=O)CC1` [Example 163, N^5-[(trans)-2-(2-chloro-4-fluorophenyl)-1-oxo-2-azaspiro[4.5]dec-8-yl]-N^4-(2-methoxyethyl)-1H-imidazole-4,5-dicarboxamide] has a pIC50 of 8.23.

Work on `O=C(NC1CC1)c1nc[nH]c1C(=O)N[C@H]1CC[C@@]2(CCN(c3ccc(F)cc3Cl)C2=O)CC1` [Example 165, N^5-[(trans)-2-(2-chloro-4-fluorophenyl)-1-oxo-2-azaspiro[4.5]dec-8-yl]-N^4-cyclopropyl-1H-imidazole-4,5-dicarboxamide] yielded a pIC50 of 8.20.

With `O=C(N[C@H]1CC[C@@]2(CCN(c3ccc(F)cc3Cl)C2=O)CC1)c1[nH]cnc1C(=O)N1CC(F)C1` [Example 166, N-[(trans)-2-(2-chloro-4-fluorophenyl)-1-oxo-2-azaspiro[4.5]dec-8-yl]-4-[(3-fluoroazetidin-1-yl)carbonyl]-1H-imidazole-5-carboxamide] the pIC50 was 8.59.
